Reference: patent US20070178577A1, “Method for effecting the anaerobic biological decomposition of organsiloxanes” (WACKER CHEMIE AG, priority 2004, published 2007)

Assays:
[1] = tested on: Sewage sludge from a municipal sewage treatment plant; assay: Anaerobic decomposition of dimethylsilanediol (DMSD) by sewage sludge with nitrate as electron acceptor, 1H-NMR; settings: in 11 days
Description: Sewage sludge from a municipal sewage treatment plant was taken off from running operations under oxygen-free conditions (N2-comprising sample vessels). To separate off interfering substrates, the cell mass was resuspended in 5-times the volume of an oxygen-free buffer (50 mmol/l of potassium phosphate pH 6.8) and centrifuged off. Oxygen-free solutions were produced by degassing the solution and purging with gaseous nitrogen.
The operation (resuspending/centrifuging) was repeated 3 times.
The washed oxygen-free cell mass was transferred in the absence of oxygen into shake flasks comprising culture medium (10 g of moist cell mass per 100 ml of medium). For control batches, the sewage sludge was autoclaved and inactivated thereby. […]
As electron acceptor, in addition, 5 g/l of KNO3 were added. […] Samples of the culture medium were taken off at regular intervals and analyzed immediately. […]
Analysis: In experiments using DMSD as a substrate, the change in concentration of DMSD in the aqueous phase was determined by means of proton magnetic resonance spectroscopy (^1H-NMR). […] Samples (0.9 ml) from the culture batches were taken off for this directly (via the stopper) from the vessel, admixed with standard (TSP in D2O; TSP=3-(trimethylsilyl)propionic acid-D4 sodium salt) and analyzed in the spectrometer. The DMSD signal can be quantified exactly via the known standard signal).

Sewage sludge = assay: Anaerobic decomposition of octamethylcyclosiloxane (D4) by sewage sludge with nitrate as electron acceptor, gas chromatography; settings: in 11 days
Description: The experiment was carried out in accordance with Example 1. In each case five flasks were made up with sewage sludge and five flasks with inactivated sewage sludge. As carbon source, octamethylcyclosiloxane (D4) was added to the medium. The siloxane is immiscible with water and first forms an oily film on the culture surface. With advancing culture time, the siloxane oil is emulsified in the culture. Relatively large cell aggregates form. Culture proceeds in accordance with Example 1 in the mineral medium specified there (SM1) comprising 5 g/l of KNO3 as electron acceptor. As sole carbon source, octamethylcyclosiloxane (D4) was added to the batches (1 ml per 100 ml of medium). After differing incubation times, the D4 content of the batches was determined. The entire batch was extracted 3 times with 50 ml of pentane, and to facilitate phase separation, it was centrifuged each time. The pentane phases were combined and D4 determined quantitatively directly by means of gas chromatography (Hewlett Packard instrument hp5890_li). The gas-chromatographic determination proceeded using a 30 m capillary (Hewlett Packard HP-1 No. 59026323) using nitrogen as carrier gas. Temperature program: 50° C. (5 min)−270° C. at 20° C./min. Detection was by means of FID at 300° C. The resultant signal peaks were quantified using corresponding standard solutions.

[2] = anaerobically incubated batch comprising sewage sludge
[3] = control batch (inactivated sewage sludge)

Row | Structure (SMILES) | decrease of the amount of DMSD [1, 2] [%] | decrease of the amount of DMSD [1, 3] [%] | decrease in the amount of D4 (Sewage sludge; [2]) [%] | decrease in the amount of D4 (Sewage sludge; [3]) [%]
1 | C[Si](C)(O)O [DMSD, Dimethylsilanediol] | −39 | −9 |  | 
2 | C[Si]1(C)O[Si](C)(C)O[Si](C)(C)O[Si](C)(C)O1 [D4, Octamethylcyclosiloxane] |  |  | −16.3 | −6.2
